Results: PMC6754304 (Cell, 2019)

Molecular target: S. cerevisiae HSP90 (HSP82) (Saccharomyces cerevisiae, UniProt P02829)
Sequence (P02829 whole entry): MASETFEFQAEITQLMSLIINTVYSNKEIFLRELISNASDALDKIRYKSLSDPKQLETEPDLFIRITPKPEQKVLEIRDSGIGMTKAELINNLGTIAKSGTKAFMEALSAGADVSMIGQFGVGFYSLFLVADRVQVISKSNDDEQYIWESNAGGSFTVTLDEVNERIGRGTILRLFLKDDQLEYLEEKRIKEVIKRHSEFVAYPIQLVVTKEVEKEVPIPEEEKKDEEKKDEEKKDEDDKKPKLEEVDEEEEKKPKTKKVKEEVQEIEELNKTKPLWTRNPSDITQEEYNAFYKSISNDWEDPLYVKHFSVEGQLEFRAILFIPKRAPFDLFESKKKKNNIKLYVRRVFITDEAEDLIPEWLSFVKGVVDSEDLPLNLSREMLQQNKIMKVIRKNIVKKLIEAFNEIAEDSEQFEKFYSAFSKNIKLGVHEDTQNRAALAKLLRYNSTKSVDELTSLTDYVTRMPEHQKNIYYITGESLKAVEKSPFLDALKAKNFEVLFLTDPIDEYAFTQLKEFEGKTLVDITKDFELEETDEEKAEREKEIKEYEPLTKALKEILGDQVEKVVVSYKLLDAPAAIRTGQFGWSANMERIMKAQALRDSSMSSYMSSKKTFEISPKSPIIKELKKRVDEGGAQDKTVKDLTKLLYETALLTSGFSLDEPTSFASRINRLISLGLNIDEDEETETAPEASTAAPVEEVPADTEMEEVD

Nc1ncnc2c1ncn2[C@@H]1O[C@H](COP(=O)(O)OP(=O)(O)OP(=O)(O)O)[C@@H](O)[C@H]1O [ATP]
ATPase activity: assayed by measuring free phosphate release from ATP using the Malachite Green method
